46 molecules from US9718816B2, “1-phenoxy-3-(alkylamino)-propan-2-ol derivatives as CARM1 inhibitors and uses thereof” (Epizyme, Inc., priority 2013, dated 2017) can be followed below.

In the experiment the target is T1, CARM1 (Homo sapiens, UniProt Q86X55).
T1 construct: Flag-CARM1-His; made in house; host or cells: HEK 293F cells infected with recombinant baculovirus (pFastBacMam)
T1 sequence (Q86X55 1-585 isoform Q86X55-1): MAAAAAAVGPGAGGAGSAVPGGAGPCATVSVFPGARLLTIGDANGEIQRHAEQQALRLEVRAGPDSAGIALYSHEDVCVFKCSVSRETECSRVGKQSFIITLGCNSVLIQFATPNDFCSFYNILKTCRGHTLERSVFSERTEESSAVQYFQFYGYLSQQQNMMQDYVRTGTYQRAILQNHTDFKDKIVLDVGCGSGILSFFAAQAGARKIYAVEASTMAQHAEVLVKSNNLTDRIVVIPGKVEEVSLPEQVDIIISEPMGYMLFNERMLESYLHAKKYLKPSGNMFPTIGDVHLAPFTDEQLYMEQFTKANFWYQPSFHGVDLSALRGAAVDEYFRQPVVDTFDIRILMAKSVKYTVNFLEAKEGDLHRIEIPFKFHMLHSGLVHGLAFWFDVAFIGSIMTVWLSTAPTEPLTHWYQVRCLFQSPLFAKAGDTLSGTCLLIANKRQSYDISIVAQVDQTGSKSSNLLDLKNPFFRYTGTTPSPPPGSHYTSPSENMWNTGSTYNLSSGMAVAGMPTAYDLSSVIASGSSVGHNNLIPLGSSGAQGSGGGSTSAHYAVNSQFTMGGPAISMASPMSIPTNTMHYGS
As to the kind of experiment: CARM1 enzyme assay on peptide substrate (3H-SAM Flashplate). It is filed as biochemical. The conditions noted are these: CARM1 0.25 nM, 3H-SAM 30 nM, peptide 250 nM, 30 min preincubation; read-out: Biochem IC50. An excerpt:
S-adenosylmethionine (SAM), S-adenosylhomocysteine (SAH), bicine, Tween20, dimethylsulfoxide (DMSO), bovine skin gelatin (BSG), sodium butyrate and Tris(2-carboxyethyl)phosphine hydrochloride solution (TCEP) were purchased from Sigma-Aldrich at the highest level of purity possible. ^3H-SAM was purchase from American Radiolabeled Chemicals with a specific activity of 80 Ci/mmol. 384-well streptavidin Flashplates were purchased from PerkinElmer.
Peptide representative of human histone H3 residues 16-30 was synthesized with an N-terminal linker-affinity tag motif and a C-terminal amide cap by 21^St Century Biochemicals. The peptide was purified by high-performance liquid chromatography (HPLC) to greater than 95% purity and confirmed by liquid chromatography mass spectrometry (LC-MS). The sequence was Biot-Ahx-[…]-amide and contained a monomethylated arginine at position 26 (SEQ ID NO.:1).
Human CARM1 (PRMT4) (NM_199141.1) transcript clone was amplified from an HEK 293 cDNA library, incorporating a flanking 5′ sequence encoding a FLAG tag ([…]) (SEQ ID NO.:2) fused directly to Ala 2 of CARM1 and 3′ sequence encoding a hexa His sequence ([…]) (SEQ ID NO.:3) fused directly to Ser 608. The gene sequence encoding isoform1 containing a deletion of amino acids 539-561 was amplified subsequently and subcloned into pFastBacMam (Viva Biotech). Protein Expression
Recombinant baculovirus were generated according to Bac-to-Bac kit instructions (Life Technologies). Protein over-expression was accomplished by infecting exponentially growing HEK 293F cell culture at 1.3×10^6 cell/ml with virus (MOI=10) in the presence of 8 mM sodium butyrate. Infections were carried out at 37° C. for 48 hours, harvested by centrifugation, and stored at −80° C. for purification.
Column was washed with 500 mM NaCl in buffer A and Flag-CARM1-His was eluted with 200 ug/ml FLAG peptide in buffer A. Pooled fractions were dialyzed in 20 mM Tris, 150 mM NaCl, 5% glycerol and 1 mM DTT, pH 7.8. The purity of recovered protein was 94.
General Procedure for CARM1 Enzyme Assays on Peptide Substrates
The assays were all performed in a buffer consisting of 20 mM Bicine (pH=7.6), 1 mM TCEP, 0.005% BSG, and 0.002% Tween 20, prepared on the day of use. Compounds in 100% DMSO (1 ul) were spotted into a polypropylene 384-well V-bottom plates (Greiner) using a Platemate Plus outfitted with a 384-channel head (Thermo Scientific). DMSO (1 ul) was added to Columns 11, 12, 23, 24, rows A-H for the maximum signal control and 1 ul of SAH, a known product and inhibitor of CARM1, was added to columns 11, 12, 23, 24, rows I-P for the minimum signal control. A cocktail (40 ul) containing the CARM1 enzyme was added by Multidrop Combi (Thermo-Fisher). The compounds were allowed to incubate with CARM1 for 30 min at room temperature, then a cocktail (10 ul) containing ^3H-SAM and peptide was added to initiate the reaction (final volume=51 ul). The final concentrations of the components were as follows: CARM1 was 0.25 nM, ^3H-SAM was 30 nM, peptide was 250 nM, SAH in the minimum signal control wells was 1 mM, and the DMSO concentration was 2%. The assays were stopped by the addition of non-radiolabeled SAM (10 ul) to a final concentration of 300 uM, which dilutes the ^3H-SAM to a level where its incorporation into the peptide substrate is no longer detectable. 50 ul of the reaction in the 384-well polypropylene plate was then transferred to a 384-well Flashplate and the biotinylated peptides were allowed to bind to the streptavidin surface for at least 1 hour before being washed once with 0.1% Tween20 in a Biotek ELx405 plate washer. The plates were then read in a PerkinElmer TopCount plate reader to measure the quantity of ^3H-labeled peptide bound to the Flashplate surface, measured as disintegrations per minute (dpm) or alternatively, referred to as counts per minute (cpm). […]

Usually IC50 stands for the concentration at which inhibition is half-maximal.

Consider `COc1nc(C)cc(C)c1CNc1cc(-c2cccc(OCC(O)CN)c2)nc2c1cnn2C(C)C` (stereo not shown) [Example 55-1], for which the IC50 was < 100 nM. Consider `CNCC(O)COc1cccc(-c2cc(N)c3cnn(C(C)C)c3n2)c1` (stereo not shown) [Example 4-1], for which the IC50 is 1000 to 3000 nM. With `CC(C)n1ncc2c(NCc3ccncc3)cc(-c3cccc(OCC(O)CN)c3)nc21` (stereo not shown) [Example 26-1] the figure was < 100 nM.

For the molecule `CNCC(O)COc1cccc(-c2cc(NCCCCCCNC(=O)c3ccn(C)n3)c3cnn(C(C)C)c3n2)c1` (stereo not shown) [Example 66-1], the IC50 lay in the range of 100 to 1000 nM.

For `CC(C)n1ncc2c(N3CCOCC3)cc(-c3cccc(OCC(O)CN)c3)nc21` (stereo not shown) [Example 11-1], the IC50 was 100 to 1000 nM.

Consider `CNCC(O)COc1cccc(-c2cc(NCC3CCOCC3)c3cnn(C(C)C)c3n2)c1` (stereo not shown) [Example 41-1], for which the IC50 was < 100 nM.

On to `CNCC(O)COc1cccc(-c2cc(N3CCOCC3)c3cnn(C(C)C)c3n2)c1` (stereo not shown) [Example 20-1], for which the IC50 is < 100 nM.

`CNCC(O)COc1cccc(-c2cc(NCCNC(=O)c3cccnc3)c3cnn(C(C)C)c3n2)c1` (stereo not shown) [Example 56-1]: the IC50 lay within 100 to 1000 nM.

For `CNCC(O)COc1cccc(-c2cc(NCCCCCNC(=O)c3cccnc3)c3cnn(C(C)C)c3n2)c1` (stereo not shown) [Example 63-1], the IC50 lay in the range of 100 to 1000 nM.

Turning to `CNCC(O)COc1cccc(-c2cc(NS(=O)(=O)N(C)C)c3cnn(C(C)C)c3n2)c1` (stereo not shown) [Example 45-1], the 50% inhibitory concentration (IC50) is < 100 nM. With `CNCC(O)COc1cccc(-c2cc(NC(=O)OCc3ccccc3)c3cnn(C(C)C)c3n2)c1` (stereo not shown) [Example 54-1] the figure was 100 to 1000 nM; with `CNCC(O)COc1cccc(-c2cc(NC3CC3)c3cnn(C(C)C)c3n2)c1` (stereo not shown) [Example 7-1], 100 to 1000 nM; with `CNCC(O)COc1cccc(-c2cc(NCc3ccccn3)c3cnn(C(C)C)c3n2)c1` (stereo not shown) [Example 34-1], 100 to 1000 nM. For the molecule `CNCC(O)COc1cccc(-c2cc(N(C)CC3CCOCC3)c3cnn(C(C)C)c3n2)c1` (stereo not shown) [Example 48-1], the IC50 was < 100 nM.

Take `CNCC(O)COc1cccc(-c2cc(NC3CCOCC3)c3cnn(C(C)C)c3n2)c1` (stereo not shown) [Example 29-1]: the IC50 fell in the range of 3000 to 10000 nM.

Turning to `CNCC(O)COc1cccc(-c2cc(NCCN)c3cnn(C(C)C)c3n2)c1` (stereo not shown) [Example 9-1], the IC50 lay within 100 to 1000 nM.

As for `CC(C)n1ncc2c(NCc3cccc(O)c3)cc(-c3cccc(OCC(O)CN)c3)nc21` (stereo not shown) [Example 35-1], the IC50 lay within 100 to 1000 nM. The same measure for `COC(=O)Nc1cc(-c2cccc(OCC(O)CN)c2)nc2c1cnn2C(C)C` (stereo not shown) [Example 10-1]: 100 to 1000 nM; for `CNCC(O)COc1cccc(-c2cc(NCCCCCCNC(=O)c3cccnc3)c3cnn(C(C)C)c3n2)c1` (stereo not shown) [Example 65-1]: 100 to 1000 nM. The same measure for `CNCC(O)COc1cccc(-c2cc(NC(=O)N(C)C)c3cnn(C(C)C)c3n2)c1` (stereo not shown) [Example 21-1]: 100 to 1000 nM; for `CC(C)n1ncc2c(N(C)C3CCOCC3)cc(-c3cccc(OCC(O)CN)c3)nc21` (stereo not shown) [Example 28-1]: 100 to 1000 nM; for `CC(C)n1ncc2c(NCc3cnc4ccccn34)cc(-c3cccc(OCC(O)CN)c3)nc21` (stereo not shown) [Example 50-1]: < 100 nM. As to `CC(C)n1ncc2c(NCc3cccnc3)cc(-c3cccc(OCC(O)CN)c3)nc21` (stereo not shown) [Example 25-1], the IC50 is 3000 to 10000 nM. With `CNCC(O)COc1cccc(-c2cc(NCc3nnn[nH]3)c3cnn(C(C)C)c3n2)c1` (stereo not shown) [Example 27-1], the IC50 is < 100 nM. With `COC(=O)CNc1cc(-c2cccc(OCC(O)CN)c2)nc2c1cnn2C(C)C` (stereo not shown) [Example 18-1] the figure was 100 to 1000 nM; with `CNCC(O)COc1cccc(-c2cc(N(C)Cc3ccccn3)c3cnn(C(C)C)c3n2)c1` (stereo not shown) [Example 44-1], 100 to 1000 nM. With `CNCC(O)COc1cccc(-c2cc(NCCNC(=O)c3ccn(C)n3)c3cnn(C(C)C)c3n2)c1` (stereo not shown) [Example 58-1], the half-inhibitory concentration (IC50) lay within 100 to 1000 nM. The same measure for `CNCC(O)COc1cccc(-c2cc(Nc3ccccn3)c3cnn(C(C)C)c3n2)c1` (stereo not shown) [Example 24-1]: 100 to 1000 nM; for `CC(C)n1ncc2c(NC(=O)OCc3ccccc3)cc(-c3cccc(OCC(O)CN)c3)nc21` (stereo not shown) [Example 51-1]: < 100 nM; for `CNCC(O)COc1cccc(-c2cc(N3CCC(C(=O)OC)CC3)c3cnn(C(C)C)c3n2)c1` (stereo not shown) [Example 52-1]: < 100 nM. With `CNCC(O)COc1cccc(-c2cc(NC)c3cnn(C(C)C)c3n2)c1` (stereo not shown) [Example 5-1] the figure was 100 to 1000 nM; with `CNCC(O)COc1cccc(-c2cc(NCCCCCN)c3cnn(C(C)C)c3n2)c1` (stereo not shown) [Example 32-1], < 100 nM; with `Cc1c(CNc2cc(-c3cccc(OCC(O)CN)c3)nc3c2cnn3C(C)C)cnn1C` (stereo not shown) [Example 37-1], 3000 to 10000 nM.

For `CNCC(O)COc1cccc(-c2cc(N[C@H]3CO[C@@H]4OCC[C@@H]43)c3cnn(C(C)C)c3n2)c1` (stereo partly shown) [Example 47-1], the IC50 lay in the range of 100 to 1000 nM.

Consider `CCOC(=O)Nc1cc(-c2cccc(OCC(O)CN)c2)nc2c1cnn2C(C)C` (stereo not shown) [Example 17-1], for which the IC50 was in the range of 100 to 1000 nM. With `CNCC(O)COc1cccc(-c2cc(NCCCCCCN)c3cnn(C(C)C)c3n2)c1` (stereo not shown) [Example 43-1] the figure was 100 to 1000 nM; with `CNCC(O)COc1cccc(-c2cc(NCc3cnn(C)c3C)c3cnn(C(C)C)c3n2)c1` (stereo not shown) [Example 46-1], < 100 nM. In the case of `CNCC(O)COc1cccc(-c2cc(N(C)C3CCOCC3)c3cnn(C(C)C)c3n2)c1` (stereo not shown) [Example 40-1], the concentration for half-maximal inhibition (IC50) is 100 to 1000 nM. Take `CC(C)n1ncc2c(NC3CCOCC3)cc(-c3cccc(OCC(O)CN)c3)nc21` (stereo not shown) [Example 19-1]: the IC50 is 100 to 1000 nM.

`CNCC(O)COc1cccc(-c2cc(NC(=O)NC3CCOCC3)c3cnn(C(C)C)c3n2)c1` (stereo not shown) [Example 2-1]: the IC50 is < 100 nM.

Turning to `CNCC(O)COc1cccc(-c2cc(NCc3c(C)cc(C)nc3OC)c3cnn(C(C)C)c3n2)c1` (stereo not shown) [Example 57-1], the half-inhibitory concentration (IC50) lay in the range of 100 to 1000 nM.

In the case of `CNCC(O)COc1cccc(-c2cc(NCCCNC(=O)c3ccn(C)n3)c3cnn(C(C)C)c3n2)c1` (stereo not shown) [Example 60-1], the IC50 fell in the range of 100 to 1000 nM. With `CC(C)n1ncc2c(NC3CC3)cc(-c3cccc(OCC(O)CN)c3)nc21` (stereo not shown) [Example 6-1] the figure was 100 to 1000 nM; with `CC(C)n1ncc2c(N(C)CC3CCOCC3)cc(-c3cccc(OCC(O)CN)c3)nc21` (stereo not shown) [Example 42-1], < 100 nM; with `CNCC(O)COc1cccc(-c2cc(NCC(=O)OC)c3cnn(C(C)C)c3n2)c1` (stereo not shown) [Example 23-1], 100 to 1000 nM. With `CNCC(O)COc1cccc(-c2cc(NCCCN)c3cnn(C(C)C)c3n2)c1` (stereo not shown) [Example 15-1] the figure was 100 to 1000 nM.
